# Read-outs that look alike come from different tables or passages of the source.
# How the values were obtained:
# LPS-induced uveitis = conditions: for Median Protein: LPS with saline 18.4, no LPS 0.36
# [1] = tested on: adjuvant arthritis in Lewis rats; assay: Adjuvant arthritis (AA) in rats; assay type: in vivo
# [2] = tested on: respiratory distress after aerosolized OVA challenge; assay: Experimental allergic bronchial asthma in rats; assay type: in vivo, Brown Norway rats; conditions: 30 ng s.c. on day 30, challenge on day 35; saline group Grade 3 or 4
# Description: To assess the ability of substance H-9392 to prevent a bronchial asthma attack, 6 male Brown Norway rats were primed to ovalbumin (OVA) by subcutaneous injection of 1 mg of OVA in suspension with 200 mg AlOH/ml 0.9% saline solution accompanied by intraperitoneal injection of 1 ml solution containing 6x10^6 heat killed Bordetella pertussis bacteria (Pasteur Merieux, S.V.), on day zero. Subsequent challenges consisted of a 5 minute period of inhalation of OVA (1 mg/ml solution) aerosolized in a Devilbiss Nebulizer operated at an airflow of 6 L/min. Respiratory Distress (RD) responses were scored as Grade 0, no signs of distress; Grade 1, tachypnea; Grade 2, moderate labored breathing; Grade 3 severe labored breathing with mouth open; Grade 4, loss of consciousness and muscular tone. Sixteen days following primary immunization all animals were exposed to an initial aerosolized challenge to establish the positive control. The animals were coded so that the observer was ignorant of the subject animal's history.
# On day thirty, the animals were divided into 2 groups and given either saline (control Group A) or 30 ng of substance H-9392, s.c., (Group B) and challenged on day 35 as above.
# [3] = tested on: C57BL/6 skin grafts on BALB/c mice; assay: Skin allograft rejection in mice; assay type: in vivo
# Description: The effect of H-9392 was also tested in skin graft rejection experiments in mice. In particular, skin grafts from C57BL/6 donor mice (H-2^b) were applied to recipient BALB/c mice (H-2^d) according to the method of Baharav, E. et al. J. Immunol. Methods (1986) 90:143-144. The number of days to rejection was measured by the sloughing of the graft. The number of days to rejection was determined for a control group (injected with saline only, 0.1 ml), and test groups that received 3 ng or 300 ng of H-9392 by subcutaneous injection one day before grafting and weekly thereafter. The results, which are graphically represented in FIGS. 40 and 40A, reveal that the 3 ng/mouse dose delayed the level of skin graft rejection at 50% by 5 days!
# IDDM of NOD mice = assay: Insulin dependent diabetes mellitus (IDDM) of NOD mice; assay type: in vivo
# [4] = tested on: experimental DTH reaction in mice; assay: In vivo bioassay of inhibition of experimental DTH reactivity (oxazolone ear swelling); design: species or system mice (BALB/c or CD1); conditions: CD1 mice, s.c.
# Description: Groups of inbred BALB/c (Jackson Laboratories, Bar Harbor, ME) or of outbred CD1 (Weizmann Institute Animal Breeding Center, Rehovot, Israel) mice are sensitized on the shaved abdominal skin with 100 µl of 2% oxazolone (OX) in acetone/olive oil (4/1, v/v) applied topically. DTH sensitivity is elicited 5 days later as follows: mice are challenged with 20 µl of 0.5% OX (10 µl administered topically to each side of the ear) in acetone/olive oil. A constant area of the ear is measured immediately before challenge and 24 and 48 h later with a Mitutoyo engineer's micrometer. The individual measuring ear swelling is blinded to the identity of the groups of mice. The increment (△) of ear swelling is expressed as the mean in units of 10^-2 mm or 10^-4 inch (+SE) depending on the micrometer that is used. Percent inhibition is calculated as follows: %Inhibition= 1-((Treated-negative control)/(positive control-negative control)) [formula]
# Mice are treated with LMWH as in Example 5.1, injected the day before primary sensitization to OX. On the fifth day after sensitization to OX, the mice are challenged to induce a DTH reaction, as described above.
# The positive control is the DTH reaction elicited in immunized mice in the absence of treatment with LMWH. The negative control is the background swelling produced by the antigen in naive (non-immunized) mice.
# BALB/c mice (at least 5 mice per group) were sensitized on the shaved abdomen with 3% 4-ethoxymethylene-2-phenyl oxazolone (OX; BDH Chemicals, GB) in acetone/olive oil applied topically. DTH sensitivity was elicited 5 days later as follows. Mice were challenged with 0.5% OX in acetone/olive oil. The ear was measured immediately before challenge and 24 h later with Mitutoyo engineer's micrometer (Japan). The individual measuring the swelling of the ear was blinded to the identity of the groups of mice. To interfere with DTH response, the low molecular weight immuno-regulatory fractions, diluted in PBS, were administrated subcutaneously into the back of the treated mice at the indicated time schedules and concentrations. Treated mice were inspected during and after (>2 months) the treatment and no major side-effects were observed clinically.
# In particular, CD1 mice (available from the Weizmann Institute Animal Breeding Center, Rehovot, Israel), 4-12 mice per group, were treated as described in Section 5.2 or 6.8.
# ICAM-1 = assay: TNF-α-induced expression of adhesion molecules by endothelial cells (ELISA); conditions: 1 h pretreatment of EC, TNFα alone 2.2±0.2
# [5] = tested on: secretion of active TNF-α by activated human CD4+ T cells; assay: Bioassay of TNF-α activity using human CD4+ T cells derived from PBLs (human PBL bioassay); conditions: conc range of 1 µg/ml - 0.01 pg/ml; inconsistent = not the same result in all three bioassays
compound,measurement,setting,value
"O=C(O)C1=C[C@H](O)[C@@H](OS(=O)(=O)O)[C@H](O[C@H]2[C@H](O)[C@@H](NS(=O)(=O)O)C(O)O[C@@H]2CO)O1 (stereo partly drawn) [H-9392, 2-O-sulfate-4-deoxy-4-en-iduronic acid-(α-1,4)-2-deoxy-2-N-sulfateglucosamine]",Median Protein,LPS-induced uveitis; 32 ng/rat at Day 1,5.2 mg/mL
same,Median Protein,LPS-induced uveitis; 500 ng/rat at Day 1,4.8 mg/mL
same,suppression of the inflammation relative to control,"LPS-induced uveitis; single administration, at either dosage",over 70%
same,suppression of the inflammation of AA,"[1]; 120 ng/rat or 0.6 ng/gm rat s.c. weekly from 1 day before induction, 24 days after induction",up to 90%
same,"effect on AA, in words","[1]; weekly or daily, beginning at day 0 or at day 12",positive suppression of the severity of AA in all cases
same,"effect on AA at 30 days post-induction, in words","[1]; weekly s.c. from day 12 to day 26, 120 ng disaccharide or 100 µg dexamethasone phosphate per rat",almost complete suppression
same,"respiratory distress after challenge, in words",[2],mere tachypnea
same,delay of the level of skin graft rejection at 50%,[3]; 3 ng/mouse s.c. one day before grafting and weekly thereafter,5 days
same,"difference at 50% rejection relative to control, in words",[3]; 300 ng/mouse s.c. one day before grafting and weekly thereafter,failed to produce a significant difference
same,mice that had become diabetic,"IDDM of NOD mice; at 4.5 months, H-9392 30 ng/mouse, glucosamine 10,000 ng/mouse s.c., all control mice diabetic",less than 50%
same,"mice that had died, in words","IDDM of NOD mice; by age 5 months, H-9392 30 ng, glucosamine 10,000 ng, all control mice had died",none
same,Inhmax,[4],78%
same,DTH,"[4]; at that dose, value in parentheses in the cell taken as positive control, not reported",4.2 ± 0.7 (17.8 ± 0.9) 10^-2 mm
same,dose window,[4]; broadest of the compounds tested,0.000132-0.004 µg/gm
same,"""R"" value","[4]; inhibitory, 0 = no effect",6.5 x 10^4 % x (μg/gm)^-1
same,Recombinant human TNFα-induced adhesion molecules (O.D 492),"ICAM-1; 50 pg/ml, no TNFα 0.18±0.01",1.0±0.04 O.D 492
same,Recombinant human TNFα-induced adhesion molecules (O.D 492),ICAM-1; 100 pg/ml,1.4±0.03 O.D 492
same,"Bioassay of TNF Activity, in words",[5],Inconsistent

# Source: patent EP1095657A2, “Compositions for the regulation of cytokine activity” (priority 1992, dated 1994)
